Values after ≈ are worked out from the molar mass of the structure shown. Counter-ions that a name gives are not always drawn.
Columns and labels:
[1] = Thermodynamic aqueous solubility by HPLC; assay type: physicochemical; details: salt from Protocol 4
[2] = Salt stability and hygroscopicity evaluation; assay type: physicochemical; details: for hygroscopicity of the salt: salt from Protocol 4; for stability of the salt: salt from Protocol 4, XRPD analysis
[3] = system: MMP13 levels in human chondrosarcoma cell line SW1353; assay: cells; details: SW1353, 48 h, read-out: OSM/IL-1β signaling EC50
Protocol: The cells are seeded in 96 well plates at 15,000 cells/well in a volume of 120 μL DMEM (Invitrogen) containing 10% (v/v) FBS and 1% penicillin/streptomycin (InVitrogen) incubated at 37° C./5% CO2. Cells are preincubated with 15 μL of compound in M199 medium with 2% DMSO 1 hr before triggering with 15 μL OSM and IL-1P to reach 25 ng/mL OSM and 1 ng/mL IL-1β, and MMP13 levels are measured in conditioned medium 48 h after triggering. MMP13 activity is measured using an antibody capture activity assay. For this purpose, 384 well plates (NUNC, 460518, MaxiSorb black) are coated with 35 μL of a 1.5 μg/mL anti-human MMP13 antibody (R&D Systems, MAB511) solution for 24 hrs at 4° C. After washing the wells 2 times with PBS+0.05% Tween, the remaining binding sites are blocked with 100 μL 5% non-fat dry milk (Santa Cruz, sc-2325, Blotto) in PBS for 24 hr at 4° C. […] After incubation for 24 hrs at 37° C. fluorescence of the converted substrate is measured in a Perkin Elmer Wallac EnVision 2102 Multilabel Reader (wavelength excitation: 320 nm, wavelength emission: 405 nm). Percentage inhibition=((fluorescence determined in the presence of vehicle−fluorescence determined for sample with test compound present) divided by (fluorescence determined in the presence of vehicle−fluorescence determined for sample without trigger))*100.

[4] = Solubility study in different solvents; assay type: physicochemical
Protocol: The supersaturated solution is then filtered and the concentration of product in the filtrate is determined using UV-spectrometry.
In water, the influence of the pH is adjusted to pH 2, pH 7, and pH 9. HCl and NaOH are used to adjust the pH.

[5] = Dog bioavailability study; assay type: in vivo, beagle dogs
Protocol: The dogs are not fasted before dosing, and have free access to water. Every day of the treatment, a half food ration is provided after the T0 blood sampling, 8 to 17 min before treatment, and the second half ration is given just after dosing or 1 h after treatment for period 2. A 3 days washout period is ensured between treatments.
The capsule composition is described in Table XX below.
The capsules are administered orally with water (5-10 mL), to provide good oesophageal transit. Each animal is checked at least once daily.
Blood is collected from the jugular vein into lithium heparinised tubes at T0 (before food administration) and then at 1 h, 2 h, 4 h, 6 h, 8 h, 10 h, and 24 h post treatment.
Plasma is then obtained from blood by centrifugation (2500 g for 10 min at 4° C.), and stored at −20° C. until analysis.
After vortex mixing and centrifugation at 4° C., the supernatants are diluted with a 0.5 volume of HPLC grade water in a midi-eppendorf 96-well plate. The plate is sealed and shaken to ensure sample homogeneity prior to analysis.
Pharmacokinetic analysis is performed using WinNonlin™ software version 5.3, using concentrations from individual animals. Non-compartmental analysis is applied to determine the PK parameters (Cmax, Tmax, AUC0-last, t1/2, etc. . . . )
Concentrations below the limit of detection are set to zero for descriptive statistics and PK parameter calculations.

[6] = oral capsules, on average and at the 2 capsule strengths, FIG. 10

Question: Which aqueous solubility [1] does the source give for `Cl.O=C(Nc1nc2cccc(-c3ccc(CN4CCS(=O)(=O)CC4)cc3)n2n1)C1CC1` [Compound 1 HCl salt] here?
Answer: 1.9 mg/mL

Question: What about the “hygroscopicity of the salt” value [2] of the same compound?
Answer: non-hygroscopic

Question: What about the “stability of the salt” value [2] of the same compound?
Answer: stable

Question: Which solubility ([1]; water) does the source give for `O=C(Nc1nc2cccc(-c3ccc(CN4CCS(=O)(=O)CC4)cc3)n2n1)C1CC1.O=C(O)/C=C\C(=O)O` [Compound 1 maleic acid salt] here?
Answer: 400 µg/mL

Question: And the “stability of the salt” value [2]?
Answer: stable

Question: For `O=C(O)/C=C\C(=O)O` [Compound 1 maleic acid salt], which “hygroscopicity of the salt” value [2] is on record?
Answer: non-hygroscopic

Question: Which EC50 [3] does the source give for `O=C(Nc1nc2cccc(-c3ccc(CN4CCS(=O)(=O)CC4)cc3)n2n1)C1CC1` [Compound 1, cyclopropanecarboxylic acid {5-[4-(1,1-dioxo-thiomorpholin-4-ylmethyl)-phenyl]-[1,2,4]triazolo[1,5-a]pyridin-2-yl}-amide] here?
Answer: 2240 nM

Question: What about the solubility ([4]; 0.01M HCl + 2.0% Tweet 80 (so in the source); presumably Tween 80), pH 2, aqueous with cosolvent or surfactant or cyclodextrin, thermodynamic from solid, 0.01M HCl + 2.0% Tweet 80, 20° C., read-out: Solubility) of the same compound?
Answer: 313 µg/mL

Question: And the solubility ([4]; aqueous with cosolvent or surfactant or cyclodextrin, thermodynamic from solid, Acetonitrile/water (1/1), 20° C., read-out: Solubility)?
Answer: 1570 µg/mL (≈ 3690 µM)

Question: And the solubility ([4]; aqueous with cosolvent or surfactant or cyclodextrin, thermodynamic from solid, HP-β-CD 40% pH 2, 20° C., read-out: Solubility)?
Answer: 577 µg/mL (≈ 1360 µM)

Question: And the solubility ([4]; aqueous with cosolvent or surfactant or cyclodextrin, thermodynamic from solid, HP-β-CD 40% pH 4, 20° C., read-out: Solubility)?
Answer: 520 µg/mL (≈ 1220 µM)

Question: What about the solubility ([4]; aqueous with cosolvent or surfactant or cyclodextrin, thermodynamic from solid, Water/ethanol 1/1, 20° C., read-out: Solubility) of the same compound?
Answer: 327 µg/mL (≈ 768 µM)

Question: What about the solubility ([4]; organic solvent or mixture, thermodynamic from solid, Acetone, 20° C., read-out: Solubility) of the same compound?
Answer: 420 µg/mL (≈ 987 µM)

Question: What about the solubility ([4]; organic solvent or mixture, thermodynamic from solid, Acetonitrile, 20° C., read-out: Solubility) of the same compound?
Answer: 605 µg/mL (≈ 1420 µM)

Question: What about the solubility ([4]; organic solvent or mixture, thermodynamic from solid, Acetonitrile/water (4/1), 20° C., read-out: Solubility) of the same compound?
Answer: 3110 µg/mL (≈ 7310 µM)

Question: And the solubility ([4]; organic solvent or mixture, thermodynamic from solid, Dichloromethane, 20° C., read-out: Solubility)?
Answer: 5660 µg/mL (≈ 13300 µM)

Question: And the solubility ([4]; organic solvent or mixture, thermodynamic from solid, Ethanol, 20° C., read-out: Solubility)?
Answer: 151 µg/mL (≈ 355 µM)

Question: And the solubility ([4]; organic solvent or mixture, thermodynamic from solid, Methanol, 20° C., read-out: Solubility)?
Answer: 432 µg/mL (≈ 1020 µM)

Question: And the solubility ([4]; organic solvent or mixture, thermodynamic from solid, PEG400, 20° C., read-out: Solubility)?
Answer: 1530 µg/mL (≈ 3600 µM)

Question: And the solubility ([4]; organic solvent or mixture, thermodynamic from solid, Propanol, 20° C., read-out: Solubility)?
Answer: 134 µg/mL (≈ 315 µM)

Question: And the solubility ([4]; organic solvent or mixture, thermodynamic from solid, Propylene glycol, 20° C., read-out: Solubility)?
Answer: 464 µg/mL (≈ 1090 µM)

Question: What about the solubility ([4]; organic solvent or mixture, thermodynamic from solid, Tetrahydrofuran, 20° C., read-out: Solubility) of the same compound?
Answer: 740 µg/mL (≈ 1740 µM)

Question: And the solubility ([4]; organic solvent or mixture, thermodynamic from solid, t-butyl methyl ether, 20° C., read-out: Solubility)?
Answer: < 2.39 µg/mL

Question: And the solubility ([4]; pH 2, simulated gastric fluid, thermodynamic from solid, 0.01M HCl, 20° C., read-out: Solubility)?
Answer: 288 µg/mL (≈ 677 µM)

Question: And the solubility ([4]; pH adjusted with HCl/NaOH, aqueous buffer, thermodynamic from solid, Water pH 2, 20° C., read-out: Solubility)?
Answer: 291 µg/mL (≈ 684 µM)

Question: What about the solubility ([4]; pH adjusted with HCl/NaOH, aqueous buffer, thermodynamic from solid, Water pH 7, 20° C., read-out: Solubility) of the same compound?
Answer: 4.32 µg/mL (≈ 10.2 µM)

Question: What about the solubility ([4]; pH adjusted with HCl/NaOH, aqueous buffer, thermodynamic from solid, Water pH 9, 20° C., read-out: Solubility) of the same compound?
Answer: 4.29 µg/mL (≈ 10.1 µM)

Question: What about the solubility ([4]; thermodynamic from solid, Water (purified), 20° C., read-out: Solubility) of the same compound?
Answer: 3.84 µg/mL (≈ 9.02 µM)

Question: What about the half-life ([5]; male, beagle, plasma, 10 mg/kg, single oral administration, range over both forms and both capsule strengths) of the same compound?
Answer: 266 to 538 min

Question: Which solubility ([4]; 0.005M HCl, 20° C.) does the source give for `Cl.O.O.O.O=C(Nc1nc2cccc(-c3ccc(CN4CCS(=O)(=O)CC4)cc3)n2n1)C1CC1` [Compound 1.HCl.3H2O] here?
Answer: 3100 µg/mL

Question: And the “in vivo exposure compared with Compound 1” value [5, 6]?
Answer: improved exposure

Question: And the “rate of absorption compared with Compound 1” value [5, 6]?
Answer: more rapidly absorbed
